What was measured:
Type in all cases: binding, human
CXCR4 D97E = experiment: 12G5 antibody competition, 293T cells transfected with CXCR4 D97E; conditions: IC50 on CXCR4 D97E relative to wt
Description: (§1) Fig. 4 The interactions of EPI-X4 and the EPI-X4 derivatives WSC02 and JM#21 with point-mutated CXCR4 were assessed by an antibody competition assay. Amino acid substitutions were introduced in the sequence of CXCR4 by site-directed mutagenesis, cloned into an IRES-eGFP expression vector, and transfected into 293 T cells. Afterward, cells were incubated with serially diluted EPI-X4 (a, b), WSC02 (c, d), or JM#21 (e, f) in presence of a constant concentration of CXCR4 specific antibody (clone 12G5). After 2 h, bound antibody was analyzed by flow cytometry. a, c, e) Representative dose-dependent replacement of 12G5 antibody by peptides. b, d, f) IC50 values were calculated by nonlinear regression. Shown are data derived from at least three individual experiments ± SEM. IC50 values were set to 1000 µM (EPI-X4 and WSC02) or 100 µM (JM#21) if the value exceeds the maximally used concentration. *p ≤ 0.05, ***p ≤ 0.001 (one-way ANOVA for comparison with wt). For IC50 values see Table 1. For all binding curves see also Fig. S8.
(§2) Mutated CXCR4 constructs were transfected into 293 T cells that have a very low endogenous expression level of wild-type CXCR4. Transfected cells were then analyzed for CXCR4 surface expression (Fig. S5a) and EPI-X4 binding using a flow cytometry-based antibody competition assay (Fig. S5b, c)[33]. […]

CXCR4 D97E + V112L = experiment: 12G5 antibody competition, 293T cells transfected with CXCR4 D97E + V112L; conditions: IC50 on CXCR4 D97E + V112L relative to wt
Description: as §1, §2

[1] = test system: CXCR4 D97E + V112A + L41A; experiment: 12G5 antibody competition, 293T cells transfected with CXCR4 D97E + V112A + L41A; conditions: IC50 on CXCR4 D97E + V112A + L41A relative to wt
Description: as §1, §2

CXCR4 V112A = experiment: 12G5 antibody competition, 293T cells transfected with CXCR4 V112A; conditions: IC50 on CXCR4 V112A relative to wt
Description: as §1, §2

CXCR4 D97S = experiment: 12G5 antibody competition, 293T cells transfected with CXCR4 D97S; conditions: IC50 on CXCR4 D97S relative to wt
Description: as §1, §2

CXCR4 E277A = experiment: 12G5 antibody competition, 293T cells transfected with CXCR4 E277A; conditions: IC50 on CXCR4 E277A relative to wt
Description: as §1, §2

CXCR4 D97T = experiment: 12G5 antibody competition, 293T cells transfected with CXCR4 D97T; conditions: IC50 on CXCR4 D97T relative to wt
Description: as §1, §2

CXCR4 D262A = experiment: 12G5 antibody competition, 293T cells transfected with CXCR4 D262A; conditions: IC50 on CXCR4 D262A relative to wt
Description: as §1, §2

CXCR4 D97N = experiment: 12G5 antibody competition, 293T cells transfected with CXCR4 D97N; conditions: IC50 on CXCR4 D97N relative to wt
Description: as §1, §2

CXCR4 D97E + V112A = experiment: 12G5 antibody competition, 293T cells transfected with CXCR4 D97E + V112A; conditions: IC50 on CXCR4 D97E + V112A relative to wt
Description: as §1, §2

IVRWSKKVPCVS [WSC02, first-generation C-terminally truncated 12-mer derivative of EPI-X4 with four substitutions]
Fold change (CXCR4 D97E): 8 | Fold change (CXCR4 D97E + V112L): 1.8 | Fold change [1]: 5 | Fold change (CXCR4 V112A): 0.6 | Fold change (CXCR4 D97S): 18 | Fold change (CXCR4 E277A): 0.7 | Fold change (CXCR4 D97T): 31 | Fold change (CXCR4 D262A): 0.4 | Fold change (CXCR4 D97N): 466 | Fold change (CXCR4 D97E + V112A): 1.5

From publication PMC8458281, “Computational modeling and experimental validation of the EPI-X4/CXCR4 complex allows rational design of small peptide antagonists” (Communications Biology, 2021)
